Reference: the supplement of paper PMC10307832

What was measured:
Test in all cases: relative viability (nuclei count vs DMSO), 5 days (fraction); higher = more cells survive
ALW-II-49-7 + Crizotinib = compound: Cc1ccc(C(=O)Nc2cccc(C(F)(F)F)c2)cc1Nc1cncc(C(N)=O)c1 [ALW-II-49-7] + C[C@@H](Oc1cc(-c2cnn(C3CCNCC3)c2)cnc1N)c1c(Cl)ccc(F)c1Cl [Crizotinib] (partner 1 µM)
Outline: (§1)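 The day after seeding in 1536-well plates, lung cancer cell lines were treated by pin tool with a single drug, or with a fixed anchor-drug dose together with five library-drug doses (not always all listed) in √10 steps. After 5 days, a combined fix-and-stain solution (final 0.05% Triton X-100, 1% formaldehyde, 1 ug/ml Hoechst) was added. Nuclei counted on 4× images gave relative viability as treated counts over vehicle counts, reported as the median of duplicate plates.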

Dasatinib + Luminespib = compound: Cc1nc(Nc2ncc(C(=O)Nc3c(C)cccc3Cl)s2)cc(N2CCN(CCO)CC2)n1 [Dasatinib] + CCNC(=O)c1noc(-c2cc(C(C)C)c(O)cc2O)c1-c1ccc(CN2CCOCC2)cc1 [Luminespib] (partner 0.01 µM)
Outline: as §1

Dasatinib + Alpelisib = compound: Cc1nc(Nc2ncc(C(=O)Nc3c(C)cccc3Cl)s2)cc(N2CCN(CCO)CC2)n1 [Dasatinib] + Cc1nc(NC(=O)N2CCC[C@H]2C(N)=O)sc1-c1ccnc(C(C)(C)C(F)(F)F)c1 [Alpelisib] (partner 2 µM)
Outline: as §1

Dasatinib + Phenformin = compound: Cc1nc(Nc2ncc(C(=O)Nc3c(C)cccc3Cl)s2)cc(N2CCN(CCO)CC2)n1 [Dasatinib] + N=C(N)NC(=N)NCCc1ccccc1 [Phenformin] (partner 250 µM)
Outline: as §1

Cell Line | relative viability (ALW-II-49-7 + Crizotinib; first compound 0.08 µM) | relative viability (ALW-II-49-7 + Crizotinib; first compound 0.253 µM) | relative viability (ALW-II-49-7 + Crizotinib; first compound 0.8 µM) | relative viability (ALW-II-49-7 + Crizotinib; first compound 2.53 µM) | relative viability (ALW-II-49-7 + Crizotinib; first compound 8 µM) | relative viability (Dasatinib + Luminespib; first compound 0.005 µM) | relative viability (Dasatinib + Luminespib; first compound 0.01581 µM) | relative viability (Dasatinib + Luminespib; first compound 0.05 µM) | relative viability (Dasatinib + Luminespib; first compound 0.1581 µM) | relative viability (Dasatinib + Luminespib; first compound 0.5 µM) | relative viability (Dasatinib + Alpelisib; first compound 0.005 µM) | relative viability (Dasatinib + Alpelisib; first compound 0.01581 µM) | relative viability (Dasatinib + Alpelisib; first compound 0.05 µM) | relative viability (Dasatinib + Alpelisib; first compound 0.1581 µM) | relative viability (Dasatinib + Alpelisib; first compound 0.5 µM) | relative viability (Dasatinib + Phenformin; first compound 0.005 µM) | relative viability (Dasatinib + Phenformin; first compound 0.01581 µM) | relative viability (Dasatinib + Phenformin; first compound 0.05 µM) | relative viability (Dasatinib + Phenformin; first compound 0.1581 µM) | relative viability (Dasatinib + Phenformin; first compound 0.5 µM)
LCLC-97TM1 | 0.609 | 0.262 | 0.532 | 0.313 | 0.297 | 0.844 | 0.798 | 0.901 | 0.598 | 0.309 | 0.266 | 0.246 | 0.24 | 0.254 | 0.143 | 0.451 | 0.439 | 0.45 | 0.449 | 0.168
LCLC-103H | 1.04 | 1.06 | 1.07 | 1.02 | 1.18 | 0.83 | 0.88 | 0.733 | 0.52 | 0.275 | 0.978 | 1.06 | 0.818 | 0.647 | 0.328 | 0.367 | 0.3 | 0.267 | 0.298 | 0.127
LK-2 | 0.216 | 0.211 | 0.215 | 0.262 | 0.226 | 0.188 | 0.194 | 0.156 | 0.158 | 0.195 | 1.04 | 0.764 | 0.449 | 0.312 | 0.275 | 0.464 | 0.23 | 0.257 | 0.166 | 0.163
LOU-NH91 | 0.744 | 0.767 | 0.728 | 0.466 | 0.703 | 0.348 | 0.348 | 0.285 | 0.259 | 0.27 | 0.69 | 0.584 | 0.572 | 0.441 | 0.34 | 0.734 | 0.678 | 0.566 | 0.489 | 0.288
LU99A | 0.535 | 0.508 | 0.521 | 0.604 | 0.546 | 0.229 | – | 0.247 | 0.143 | 0.166 | 0.494 | 0.5 | 0.477 | 0.288 | 0.192 | 0.845 | – | 0.888 | 0.752 | 0.472
LXF-289 | 0.817 | 0.817 | 0.911 | 0.923 | 0.876 | 0.745 | 0.564 | 0.648 | 0.334 | 0.138 | 1.05 | 1.05 | 0.666 | 0.154 | 0.109 | 0.543 | 0.512 | 0.414 | 0.34 | 0.0987
NCI-H23 | 0.419 | 0.475 | 0.493 | 0.598 | 0.509 | 0.233 | 0.195 | 0.217 | 0.19 | 0.187 | 0.597 | 0.549 | 0.615 | 0.403 | 0.323 | 0.841 | 0.752 | 0.929 | 0.655 | 0.607
NCI-H322M | 0.928 | 0.689 | 0.775 | 1.04 | 0.71 | 0.779 | 0.491 | 0.38 | 0.288 | 0.232 | 0.855 | 0.773 | 0.696 | 0.459 | 0.203 | 0.604 | 0.61 | 0.443 | 0.206 | 0.195
